Common to all, as to format: in vivo
For test [1], the system named is ryegrass, Italian (Italian ryegrass, Lolium multiflorum). Description: Test A postemergence. The following applies: Lolium multiflorum, post-emergence, 240 h, 125 g ai/ha. The method, boiled down: (§1)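 Greenhouse, ~10 d after spray; visual injury vs untreated controls, 0 = no effect, 100 = complete control. Preemergence: directed soil spray over planted seeds. Postemergence: plants 2–10 cm, 1–2 leaf stage. Loam/sand blend. Compound in non-phytotoxic solvent with surfactant.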

The test system of test [2] is giant foxtail (Setaria faberii). Nature of the test: Test A postemergence. The following applies: Setaria faberi, post-emergence, 240 h, 125 g ai/ha. The method, boiled down: as §1
The subject of test [3] is pigweed (Amaranthus retroflexus). Nature of the test: Test A postemergence. The settings on record: Amaranthus retroflexus, post-emergence, 240 h, 125 g ai/ha. In a few lines:
as §1

The subject of test [4] is ragweed (common ragweed, Ambrosia elatior). Description: Test A postemergence. The settings on record: Ambrosia artemisiifolia, post-emergence, 240 h, 125 g ai/ha. In a few lines:
as §1

Test [5] has as its system wheat (Triticum aestivum). Nature of the test: Test A postemergence. The settings on record: Triticum aestivum, post-emergence, 240 h, 125 g ai/ha. The method, boiled down:
as §1

Test [6] deals with Galium (catchweed bedstraw, Galium aparine). Nature of the test: Test A postemergence. The settings on record: Galium, post-emergence, 240 h, 125 g ai/ha. The method, boiled down:
as §1

Another test has as its system corn (Zea mays). Description: Test A postemergence. The following applies: Zea mays, post-emergence, 240 h, 125 g ai/ha; for plant injury at 125 g/ha: postemergence, visual injury rating after approximately 10 d, read-out: Corn plant response rating (0 to 100 scale, 0 no effect, 100 complete control). The method, boiled down: as §1
Test [7] concerns blackgrass (Alopecurus myosuroides). Description: Test A postemergence. The following applies: Alopecurus myosuroides, post-emergence, 240 h, 125 g ai/ha. The method, boiled down:
as §1

In test [8] the test system is barnyardgrass (Echinochloa crus-galli). Nature of the test: Test A postemergence. The following applies: Echinochloa crus-galli, post-emergence, 240 h, 125 g ai/ha. The method, boiled down: as §1
In test [9] the test system is ryegrass, Italian (Italian ryegrass, Lolium multiflorum). Nature of the test: Test A preemergence. The settings on record: Lolium multiflorum, pre-emergence, 240 h; for pest or weed control at 125 g/ha: 125 g ai/ha, preemergence, 0 to 100 scale where 0 is no effect and 100 is complete control, read-out: Ryegrass, Italian plant response rating; for pest or weed control at 500 g/ha: 500 g ai/ha, Preemergence, visual injury vs untreated controls after approximately 10 d, read-out: Ryegrass, Italian plant response rating (0 to 100 scale where 0 is no effect and 100 is complete control). In a few lines:
as §1

Test [10] has as its system giant foxtail (Setaria faberii). Nature of the test: Test A preemergence. The settings on record: Setaria faberi, pre-emergence, 240 h; for pest or weed control at 125 g/ha: 125 g ai/ha, preemergence, 0 to 100 scale where 0 is no effect and 100 is complete control, read-out: Foxtail, Giant plant response rating; for pest or weed control at 500 g/ha: 500 g ai/ha, Preemergence, visual injury vs untreated controls after approximately 10 d, read-out: Foxtail, Giant plant response rating (0 to 100 scale where 0 is no effect and 100 is complete control). The method, boiled down: as §1

Test [11] has as its system pigweed (Amaranthus retroflexus). Description: Test A preemergence. The following applies: Amaranthus retroflexus, pre-emergence, 240 h; for pest or weed control at 125 g/ha: 125 g ai/ha, preemergence, 0 to 100 scale where 0 is no effect and 100 is complete control, read-out: Pigweed plant response rating; for pest or weed control at 500 g/ha: 500 g ai/ha, Preemergence, visual injury vs untreated controls after approximately 10 d, read-out: Pigweed plant response rating (0 to 100 scale where 0 is no effect and 100 is complete control).

Test [12] concerns ragweed (common ragweed, Ambrosia elatior). Nature of the test: Test A preemergence. The following applies: Ambrosia artemisiifolia, pre-emergence, 240 h; for pest or weed control at 125 g/ha: 125 g ai/ha, preemergence, 0 to 100 scale where 0 is no effect and 100 is complete control, read-out: Ragweed plant response rating; for pest or weed control at 500 g/ha: 500 g ai/ha, Preemergence, visual injury vs untreated controls after approximately 10 d, read-out: Ragweed plant response rating (0 to 100 scale where 0 is no effect and 100 is complete control). The method, boiled down: as §1

For another test, the system named is Kochia (Kochia scoparia). Description: Test A preemergence. The settings on record: Bassia scoparia, pre-emergence, 240 h; for pest or weed control at 125 g/ha: 125 g ai/ha, preemergence, 0 to 100 scale where 0 is no effect and 100 is complete control, read-out: Kochia plant response rating; for pest or weed control at 500 g/ha: 500 g ai/ha, Preemergence, visual injury vs untreated controls after approximately 10 d, read-out: Kochia plant response rating (0 to 100 scale where 0 is no effect and 100 is complete control). The method, boiled down:
as §1

In test [13] the test system is barnyardgrass (Echinochloa crus-galli). Description: Test A preemergence. The settings on record: Echinochloa crus-galli, pre-emergence, 240 h; for pest or weed control at 125 g/ha: 125 g ai/ha, preemergence, 0 to 100 scale where 0 is no effect and 100 is complete control, read-out: Barnyardgrass plant response rating; for pest or weed control at 500 g/ha: 500 g ai/ha, Preemergence, visual injury vs untreated controls after approximately 10 d, read-out: Barnyardgrass plant response rating (0 to 100 scale where 0 is no effect and 100 is complete control). The method, boiled down:
as §1

[14] abbreviates: postemergence, visual injury rating after approximately 10 d, read-out: Ryegrass, Italian plant response rating (0 to 100 scale, 0 no effect, 100 complete control).
Setting [15] is: postemergence, visual injury rating after approximately 10 d, read-out: Foxtail, Giant plant response rating (0 to 100 scale, 0 no effect, 100 complete control).
Where [16] appears, read: postemergence, visual injury rating after approximately 10 d, read-out: Pigweed plant response rating (0 to 100 scale, 0 no effect, 100 complete control).
Where [17] appears, read: postemergence, visual injury rating after approximately 10 d, read-out: Ragweed plant response rating (0 to 100 scale, 0 no effect, 100 complete control).
[18] abbreviates: postemergence, visual injury rating after approximately 10 d, read-out: Wheat plant response rating (0 to 100 scale, 0 no effect, 100 complete control).
[19] abbreviates: postemergence, visual injury rating after approximately 10 d, read-out: Galium plant response rating (0 to 100 scale, 0 no effect, 100 complete control).
[20] abbreviates: postemergence, visual injury rating after approximately 10 d, read-out: Blackgrass plant response rating (0 to 100 scale, 0 no effect, 100 complete control).
The mark [21] stands for this setting: postemergence, visual injury rating after approximately 10 d, read-out: Barnyardgrass plant response rating (0 to 100 scale, 0 no effect, 100 complete control).

Among the data in patent US12077503B2, “Substituted cyclic amides and their use as herbicides” (FMC CORPORATION, priority 2015, dated 2024) are pest or weed control, plant injury and Corn plant response rating (crop injury, 0 = no effect, 100 = complete kill) values, retold here.

Like-named read-outs stand apart in the source and are kept apart here.

As for `CCOc1ccc([C@H]2CN(C)C(=O)[C@@H]2C(=O)Nc2ccc(F)cc2F)cc1` [Compound 905], the pest or weed control at 125 g/ha was found to be 0% in [1] (setting [14]); 60% in test [2] (setting [15]); 0% in [3] (setting [16]); 0% in [4] (setting [17]); 0% in test [6] (setting [19]); 0% in [7] (setting [20]). Further, the pest or weed control at 125 g/ha was 70% in test [8] (setting [21]); 0% in test [9]; 90% in test [10]; 0% in [11]; 0% in test [12]; 10% with Kochia (Kochia scoparia). The pest or weed control at 125 g/ha in test [13] was found to be 70%. Also, the plant injury at 125 g/ha (in test [5] (setting [18]); in the test with corn (Zea mays)) was 0% throughout. Besides, the pest or weed control at 500 g/ha in [9] was determined as 0%; in test [10], 90%; in test [11] it was 0%; in test [12], 0%; in the test on Kochia (Kochia scoparia), 90%; in test [13], 90%.
Regarding `COc1c(F)ccc([C@H]2CNC(=O)[C@@H]2C(=O)Nc2ccc(F)c(F)c2F)c1Cl` [Compound 890], the pest or weed control at 125 g/ha is 0% in [1] (setting [14]); 70% in test [2] (setting [15]); 0% in test [3] (setting [16]); 0% in test [4] (setting [17]); 50% in [6] (setting [19]); 20% in [7] (setting [20]). The pest or weed control at 125 g/ha turned out to be 90% in [8] (setting [21]); 50% in test [9]; 90% in test [10]; 30% in test [11]; 0% in test [12]; 40% in the test on Kochia (Kochia scoparia). The pest or weed control at 125 g/ha in test [13] amounted to 90%. Further, the plant injury at 125 g/ha worked out at 0% in test [5] (setting [18]) and 20% in the test on corn (Zea mays). Further, the pest or weed control at 500 g/ha in test [9] amounted to 70%; in test [10] it was 90%; in test [11], 50%; in test [12] it was 0%; in the test on Kochia (Kochia scoparia), 90%; in test [13], 90%.
With `CN1CC[C@H](c2cccc(Cl)c2)[C@@H](C(=O)Nc2cccc(F)c2F)C1=O` [Compound 921], the pest or weed control at 125 g/ha in [1] (Postemergence, visual injury after approximately 10 d, 0 to 100 scale where 0 is no effect and 100 is complete control, read-out: Plant response rating, Ryegrass, Italian) is 20%; in test [2] (Postemergence, visual injury after approximately 10 d, 0 to 100 scale where 0 is no effect and 100 is complete control, read-out: Plant response rating, Foxtail, Giant), 90%; in [3] (Postemergence, visual injury after approximately 10 d, 0 to 100 scale where 0 is no effect and 100 is complete control, read-out: Plant response rating, Pigweed), 0%; in test [4] (Postemergence, visual injury after approximately 10 d, 0 to 100 scale where 0 is no effect and 100 is complete control, read-out: Plant response rating, Ragweed) it was 0%; in test [6] (Postemergence, visual injury after approximately 10 d, 0 to 100 scale where 0 is no effect and 100 is complete control, read-out: Plant response rating, Galium), 0%; in test [7] (Postemergence, visual injury after approximately 10 d, 0 to 100 scale where 0 is no effect and 100 is complete control, read-out: Plant response rating, Blackgrass) it was 20%. The pest or weed control at 125 g/ha in test [8] (Postemergence, visual injury after approximately 10 d, 0 to 100 scale where 0 is no effect and 100 is complete control, read-out: Plant response rating, Barnyardgrass) is 90%; in [9] it was 50%; in test [10], 90%; in [11] it was 0%; in [12], 0%; in the test with Kochia (Kochia scoparia), 0%. The pest or weed control at 125 g/ha in test [13] is 90%. In addition, the plant injury at 125 g/ha in test [5] (Postemergence, visual injury after approximately 10 d, 0 to 100 scale where 0 is no effect and 100 is complete control, read-out: Plant response rating, Wheat) was 20%. The Corn plant response rating (crop injury, 0 = no effect, 100 = complete kill) at 125 g/ha in the test with corn (Zea mays) (Postemergence, visual injury after approximately 10 d, 0 to 100 scale where 0 is no effect and 100 is complete control) came to 20%. Moreover, the pest or weed control at 500 g/ha was 60% in test [9]; 100% in test [10]; 0% in test [11]; 0% in [12]; 30% in the test with Kochia (Kochia scoparia); 90% in test [13].
